Assays:
Assay in all cases: relative viability (nuclei count vs DMSO), 5 days (fraction); higher = more cells survive
[1] = compound: CC1=CC(=CC=C1)NC2=NC(=CS2)C3=CC=NC=C3 + N=C(N)NC(=N)NCCc1ccccc1 [Phenformin] (partner 250 µM)
How it was run: (§1)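 Lung cancer cell lines were pin-tool dosed in 1536-well plates on the day after seeding, with either a lone drug or a fixed anchor-drug dose plus five library-drug doses (not always all listed) in √10 steps. Nuclei were counted on 4× images after 5 days. Relative viability is the ratio of treated-well to vehicle-well nuclei counts, with each value a median of duplicate plates.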

[2] = compound: CC1=CC(=CC=C1)NC2=NC(=CS2)C3=CC=NC=C3 + Nc1nc2[nH]cc(CCc3ccc(C(=O)N[C@@H](CCC(=O)O)C(=O)O)cc3)c2c(=O)[nH]1 [Pemetrexed] (partner 0.2 µM)
How it was run: as §1

[3] = compound: CC1=CC(=CC=C1)NC2=NC(=CS2)C3=CC=NC=C3 + Nc1ncn([C@H]2C[C@H](O)[C@@H](CO)O2)c(=O)n1 [Decitabine] (partner 2 µM)
How it was run: as §1

Masitinib + Linsitinib = compound: Cc1ccc(NC(=O)c2ccc(CN3CCN(C)CC3)cc2)cc1Nc1nc(-c2cccnc2)cs1 [Masitinib] + C[C@]1(O)C[C@@H](c2nc(-c3ccc4ccc(-c5ccccc5)nc4c3)c3c(N)nccn32)C1 [Linsitinib] (partner 1 µM)
How it was run: as §1

UMC-11 gave a relative viability ([1]; first compound 0.08 µM) of 0.314, a relative viability ([1]; first compound 0.253 µM) of 0.298 and a relative viability ([1]; first compound 0.8 µM) of 0.32. It also gave a relative viability ([1]; first compound 2.53 µM) of 0.307, a relative viability ([1]; first compound 8 µM) of 0.349 and a relative viability ([2]; first compound 0.08 µM) of 0.662. It also gave a relative viability ([2]; first compound 0.253 µM) of 0.802, a relative viability ([2]; first compound 0.8 µM) of 0.775 and a relative viability ([2]; first compound 2.53 µM) of 0.834. It also gave a relative viability ([2]; first compound 8 µM) of 0.825, a relative viability ([3]; first compound 0.08 µM) of 0.56 and a relative viability ([3]; first compound 0.253 µM) of 0.552. It also gave a relative viability ([3]; first compound 0.8 µM) of 0.572, a relative viability ([3]; first compound 2.53 µM) of 0.626 and a relative viability ([3]; first compound 8 µM) of 0.714. For the same cell line, the relative viability (Masitinib + Linsitinib; first compound 0.01 µM) was 0.982, the relative viability (Masitinib + Linsitinib; first compound 0.03162 µM) was 1.12 and the relative viability (Masitinib + Linsitinib; first compound 0.1 µM) was 1.27. It also gave a relative viability (Masitinib + Linsitinib; first compound 0.3162 µM) of 1.07 and a relative viability (Masitinib + Linsitinib; first compound 1 µM) of 1.25.
